# Laboratory results published in the supplement of paper PMC10307832.
# Experiments:
# Assay in all cases: relative viability (nuclei count vs DMSO), 5 days (fraction); higher = more cells survive
# Olaparib + Vorinostat = compound: O=C(c1cc(Cc2n[nH]c(=O)c3ccccc23)ccc1F)N1CCN(C(=O)C2CC2)CC1 [Olaparib] + O=C(CCCCCCC(=O)Nc1ccccc1)NO [Vorinostat] (partner 1 µM)
# Outline: (§1)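 Lung cancer cell lines in 1536-well plates got either a single drug or a fixed anchor-drug dose together with five library-drug doses (not always all listed) in √10 steps, by pin tool, on the day after seeding. Nuclei were counted after 5 days, and relative viability is the treated-to-vehicle ratio of nuclei counts. Values are medians of duplicate plates.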
# Olaparib + Navitoclax = compound: O=C(c1cc(Cc2n[nH]c(=O)c3ccccc23)ccc1F)N1CCN(C(=O)C2CC2)CC1 [Olaparib] + CC1(C)CCC(c2ccc(Cl)cc2)=C(CN2CCN(c3ccc(C(=O)NS(=O)(=O)c4ccc(N[C@H](CCN5CCOCC5)CSc5ccccc5)c(S(=O)(=O)C(F)(F)F)c4)cc3)CC2)C1 [Navitoclax] (partner 0.5 µM)
# Outline: as §1
# Carfilzomib + Decitabine = compound: CC(C)C[C@H](NC(=O)[C@H](CCc1ccccc1)NC(=O)CN1CCOCC1)C(=O)N[C@@H](Cc1ccccc1)C(=O)N[C@@H](CC(C)C)C(=O)[C@@]1(C)CO1 [Carfilzomib] + Nc1ncn([C@H]2C[C@H](O)[C@@H](CO)O2)c(=O)n1 [Decitabine] (partner 2 µM)
# Outline: as §1
# Carfilzomib + Linsitinib = compound: CC(C)C[C@H](NC(=O)[C@H](CCc1ccccc1)NC(=O)CN1CCOCC1)C(=O)N[C@@H](Cc1ccccc1)C(=O)N[C@@H](CC(C)C)C(=O)[C@@]1(C)CO1 [Carfilzomib] + C[C@]1(O)C[C@@H](c2nc(-c3ccc4ccc(-c5ccccc5)nc4c3)c3c(N)nccn32)C1 [Linsitinib] (partner 1 µM)
# Outline: as §1
Cell Line,relative viability (Olaparib + Vorinostat; first compound 0.08 µM),relative viability (Olaparib + Vorinostat; first compound 0.253 µM),relative viability (Olaparib + Vorinostat; first compound 2.53 µM),relative viability (Olaparib + Vorinostat; first compound 8 µM),relative viability (Olaparib + Navitoclax; first compound 0.08 µM),relative viability (Olaparib + Navitoclax; first compound 0.253 µM),relative viability (Olaparib + Navitoclax; first compound 2.53 µM),relative viability (Olaparib + Navitoclax; first compound 8 µM),relative viability (Carfilzomib + Decitabine; first compound 0.001 µM),relative viability (Carfilzomib + Decitabine; first compound 0.003162 µM),relative viability (Carfilzomib + Decitabine; first compound 0.01 µM),relative viability (Carfilzomib + Decitabine; first compound 0.03162 µM),relative viability (Carfilzomib + Decitabine; first compound 0.1 µM),relative viability (Carfilzomib + Linsitinib; first compound 0.001 µM),relative viability (Carfilzomib + Linsitinib; first compound 0.003162 µM),relative viability (Carfilzomib + Linsitinib; first compound 0.01 µM),relative viability (Carfilzomib + Linsitinib; first compound 0.03162 µM),relative viability (Carfilzomib + Linsitinib; first compound 0.1 µM)
NCI-H1755,0.748,0.588,0.704,0.637,1.02,0.912,1.01,0.876,0.732,0.729,0.669,0.755,0.446,0.984,0.986,0.982,0.97,0.218
NCI-H1915,0.495,0.438,0.373,0.281,0.721,0.725,0.739,0.486,0.257,0.296,0.24,0.259,0.106,1.1,1.1,1.05,0.655,0.106
NCI-H1944,0.534,0.423,0.399,0.367,0.95,0.842,1.07,0.64,0.405,0.447,0.449,0.453,0.234,1.14,1.24,1.17,1.2,0.489
NCI-H1975,0.739,0.649,0.717,0.624,1.28,0.957,1.14,1.02,0.378,0.451,0.365,0.132,0.147,0.885,0.896,0.562,0.129,0.132
NCI-H1993,0.962,0.869,0.82,0.88,0.872,0.914,1.19,1.27,0.542,0.589,0.658,0.541,0.461,0.758,0.773,0.712,0.607,0.563
NCI-H2009,0.836,0.666,0.674,0.645,1.31,1.05,1.1,0.996,0.401,0.391,0.401,0.268,0.0605,1.24,1.28,1.22,0.494,0.0639
NCI-H2023,0.734,0.531,0.507,0.315,1.05,0.973,0.959,0.787,0.184,0.23,0.173,0.203,0.0666,0.6,0.768,0.653,0.607,0.0783
NCI-H2085,0.844,0.703,0.749,0.616,1.25,1.03,1.12,0.929,0.589,0.608,0.584,0.421,0.297,0.843,0.835,0.778,0.418,0.235
NCI-H2087,0.834,0.761,0.658,0.546,0.968,0.869,0.877,0.728,0.214,0.247,0.179,0.0542,0.0427,0.936,1.05,0.851,0.108,0.119
NCI-H2126,0.803,0.773,0.819,0.777,0.875,0.824,0.749,0.853,0.627,0.625,0.552,0.597,0.555,0.703,0.793,0.695,0.764,0.58
NCI-H2347,0.577,0.568,0.588,0.398,0.9,0.779,0.692,0.562,0.625,0.608,0.66,0.594,0.389,0.983,1.06,0.962,0.785,0.391
NCI-H2405,1.28,0.957,0.997,0.926,1.21,0.878,0.869,0.677,0.803,0.881,0.763,0.57,0.225,–,1.19,1.01,0.389,0.16
NCI-H3122,1.17,0.932,0.986,0.789,0.948,0.976,0.964,0.86,0.451,0.441,0.421,0.462,0.216,0.958,1.05,0.95,1,0.806
PC-3 [JPC-3],0.923,–,0.943,0.942,0.784,0.729,0.743,0.76,0.832,0.879,0.89,0.64,0.301,1,0.881,1,0.86,0.466
PC-14,0.889,0.579,0.709,0.34,1.04,0.934,0.867,0.722,0.198,0.273,0.23,0.0558,0.0667,1.09,0.937,1.08,0.215,0.12
RERF-LC-KJ,0.79,0.644,0.748,0.633,1.04,0.862,0.998,1.09,0.744,0.721,0.807,0.422,0.207,0.888,0.919,1.05,0.776,0.353
SK-LU-1,0.847,0.705,0.726,0.545,0.941,0.785,0.749,0.409,0.591,0.713,0.625,0.262,0.23,1.08,1.34,0.949,0.173,0.161
SK-MES-1,1.04,0.985,1.06,0.914,1.15,1.07,1.13,0.825,0.385,0.375,0.437,0.356,0.181,1.17,1.16,1.17,1.03,0.334
SW 1573,1.08,0.693,0.711,0.489,0.958,0.795,0.858,0.671,0.551,0.52,0.297,0.0743,0.0554,0.736,0.881,0.75,0.268,0.0735
UMC-11,0.392,0.324,0.365,0.208,0.398,0.321,0.259,0.207,0.603,0.609,0.54,0.819,0.459,0.981,1.03,1.01,0.949,0.224
